Data from US20240228499A1, “MASP-2 INHIBITORS AND METHODS OF USE” (Omeros Corporation, priority 2022, published 2024).
pKi: −log10 of the molar value. Counter-ions that a name gives are not always drawn.

Assays:
MASP-2 (CCP1-CCP2-SP) = molecular target: T1, MASP-2 (CCP1-CCP2-SP) (Homo sapiens, UniProt O00187); test: Enzymatic assay for MASP-2 inhibitory activity (fluorogenic substrate); format: biochemical; settings: room temperature, 20 mM Hepes pH 7.4, 20 min
T1 construct: 15 μL of Enzyme MASP-2 (CCP1-CCP2-SP) in Assay Buffer
T1 sequence (O00187 287-686 limits assumed): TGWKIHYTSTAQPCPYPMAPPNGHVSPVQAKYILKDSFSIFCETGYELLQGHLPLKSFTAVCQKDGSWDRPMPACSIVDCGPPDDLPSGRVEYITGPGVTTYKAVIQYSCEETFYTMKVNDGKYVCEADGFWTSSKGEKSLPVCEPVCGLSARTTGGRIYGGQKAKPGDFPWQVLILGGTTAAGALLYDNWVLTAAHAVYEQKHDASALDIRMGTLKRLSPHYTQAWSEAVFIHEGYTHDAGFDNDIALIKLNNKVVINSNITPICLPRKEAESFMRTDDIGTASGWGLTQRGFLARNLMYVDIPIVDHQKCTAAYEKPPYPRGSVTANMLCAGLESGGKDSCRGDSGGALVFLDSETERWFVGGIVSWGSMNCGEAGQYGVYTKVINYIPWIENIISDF
Protocol: The MASP-2 assay utilizes a fluorogenic substrate, based on the cleavage site for its natural substrate C2. The assay was run at room temperature in an assay buffer containing 20 mM HEPES, pH 7.4, 140 mM NaCl and 0.1% Tween 20. Assay parameters were adjusted such that the assay was linear with respect to time, enzyme, and substrate concentrations. Under the optimized assays conditions, IC50 values were equivalent to Ki values, except in the few cases of “tight binding” inhibitors. Cases of “tight binding” or possible “slow binding” inhibitors were handled by the methods described in Copeland R. A. (2013) Evaluation of Enzyme Inhibitors in Drug Discovery. 2nd Ed., John Wiley and Sons, Inc., Chapters 5-7.
The MASP-2 assay protocol was carried out as follows. Test compounds were serially diluted in DMSO and then 100 nL of each dilution was transferred to the assay plate(s). 10 μL of Assay Buffer was added, followed by 15 μL of Enzyme MASP-2 (CCP1-CCP2-SP) in Assay Buffer. 15 μL of Substrate in Assay Buffer was then added and the mixture was mixed to start the reaction. After 20 min at room temperature, 15 μL of a stop solution (0.1 M acetic acid) was added, the sample was mixed, and the plates were read on a SpectraMax i3× Microplate Reader with the data exported as an Excel file. Each assay plate included a “no inhibitor” (DMSO only) control, a “no enzyme” control, and a reference inhibitor control. % Activity values=100*(average test comp. fluorescence−average “no enzyme” fluorescence)/(average “DMSO only” fluorescence−average “no enzyme” fluorescence). IC50 and Ki replicate values were very reproducible, with values well within +2-fold.

human a-thrombin = molecular target: T2, human a-thrombin (Homo sapiens, UniProt P00734); test: Enzymatic assay for thrombin (fluorogenic peptide substrate Boc-VPR-AMC); format: biochemical; settings: room temperature, 20 mM Hepes pH 7.4, 20 min
T2 construct: enzyme (human a-thrombin (BioPharm® Lab.)); purchased BioPharm Lab
Protocol: The thrombin assay utilizes a fluorogenic peptide substrate (Boc-VPR-AMC (R&D Systems) and was run at room temperature in an assay buffer containing 20 mM Hepes, pH 7.4, 140 mM NaCl and 0.1% Tween 20. Assay parameters were adjusted such that the assay was linear with respect to time, enzyme, and substrate concentrations. Under these optimized assays conditions, IC50 values were equivalent to Ki values, except in a few cases of “tight binding” inhibitors. Cases of “tight binding” or possible “slow binding” inhibitors were handled by the methods described in Copeland R.A. (2013) Evaluation of Enzyme Inhibitors in Drug Discovery. 2nd Ed. John Wiley and Sons, Inc., Chapters 5-7.
The thrombin assay protocol was carried out as follows. Test compounds were serially diluted in DMSO and then 100 nL of each dilution was transferred to the assay plate(s). 10 μL of Assay Buffer was added, followed by 15 μL of enzyme (human a-thrombin (BioPharm® Lab.)) in assay buffer. 15 μL of substrate in assay buffer was then added and the sample mixed to start the reaction. After 20 min at room temperature, 15 μL of a stop solution (0.1 M acetic acid) was added, the sample was mixed, and the plates were read on a SpectraMax® i3× Microplate Reader with the data exported as Excel files. Each assay plate included a “no inhibitor” (DMSO only) control, a “no enzyme” control, and a reference inhibitor control. % Activity values=100*(ave. test comp. fluorescence−ave. “no enz” fluorescence)/(ave. “DMSO only” fluorescence−ave. “no enz” fluorescence). IC50 and Ki values were very reproducible, with values falling well within +2-fold.

| pKi (MASP-2 (CCP1-CCP2-SP)) | pKi (human a-thrombin) | Structure (SMILES) |
| --- | --- | --- |
| > 6.30 | 5.00 to 5.60 | Cc1nc(N)ccc1CNC(=O)[C@@H]1CCc2ncc(NCc3ccc(C(F)(F)F)cc3F)c(=O)n21 [Compound 43, (S)-N-((6-amino-2-methylpyridin-3-yl)methyl)-3-((2-fluoro-4-(trifluoromethyl)benzyl)amino)-4-oxo-4,6,7,8-tetrahydro-pyrrolo[1,2-a]pyrimidine-6-carboxamide, di-trifluoroacetate] |
| > 6.30 | 5.60 to 6.30 | COc1cc(CNc2cnc3n(c2=O)[C@H](C(=O)NCc2ccc(N)nc2C)CC3)ccc1C [Compound 45, (S)-N-((6-amino-2-methylpyridin-3-yl)methyl)-3-((3-methoxy-4-methylbenzyl)amino)-4-oxo-4,6,7,8-tetrahydropyrrolo[1,2-a]pyrimidine-6-carboxamide, trifluoroacetate] |
| > 6.30 | 5.60 to 6.30 | Cc1nc(N)ccc1CNC(=O)[C@@H]1CCc2ncc(NCc3cc(F)cc(C(F)(F)F)c3)c(=O)n21 [Compound 47, (S)-N-((6-amino-2-methylpyridin-3-yl)methyl)-3-((3-fluoro-5-(trifluoromethyl)benzyl)amino)-4-oxo-4,6,7,8-tetrahydro-pyrrolo[1,2-a]pyrimidine-6-carboxamide, di-trifluoroacetate] |
| > 6.30 | 5.60 to 6.30 | COc1cccc(CNc2cnc3n(c2=O)[C@H](C(=O)NCc2ccc(N)nc2C)CC3)c1C [Compound 48, (S)-N-((6-amino-2-methylpyridin-3-yl)methyl)-3-((3-methoxy-2-methylbenzyl)amino)-4-oxo-4,6,7,8-tetrahydropyrrolo[1,2-a]pyrimidine-6-carboxamide, trifluoroacetate] |
| > 6.30 | > 6.30 | COc1cc(F)cc(CNc2cnc3n(c2=O)[C@H](C(=O)NCc2ccc(N)nc2C)CC3)c1 [Compound 49, (S)-N-((6-amino-2-methylpyridin-3-yl)methyl)-3-((3-fluoro-5-methoxybenzyl)amino)-4-oxo-4,6,7,8-tetrahydropyrrolo[1,2-a]pyrimidine-6-carboxamide, di-trifluoroacetate] |
| > 6.30 | < 4.60 | Cc1cc(CNc2cnc3n(c2=O)[C@H](C(=O)N[C@H](C)c2ccc(N)nc2)CC3)cc(C(F)(F)F)c1 [Compound 51, (S)—N—((R)-1-(6-aminopyridin-3-yl)ethyl)-3-((3-methyl-5-(trifluoromethyl)benzyl)amino)-4-oxo-4,6,7,8-tetrahydropyrrolo[1,2-a]pyrimidine-6-carboxamide. DI-trifluoroacetate] |
| > 6.30 | 5.00 to 5.60 | Cc1nc(N)ccc1CNC(=O)[C@@H]1CCc2ncc(NCc3ccc(F)cc3)c(=O)n21 [Compound 52, (S)—N-((6-amino-2-methylpyridin-3-yl)methyl)-3-((4-fluorobenzyl)amino)-4-oxo-4,6,7,8-tetrahydropyrrolo[1,2-a]pyrimidine-6-carboxamide] |
| > 6.30 | > 6.30 | Cc1cc(Cl)cc(CNc2cnc3n(c2=O)[C@H](C(=O)NCc2ccc(N)nc2C)CC3)c1 [Compound 55, (S)-N-((6-amino-2-methylpyridin-3-yl)methyl)-3-((3-chloro-5-methylbenzyl)amino)-4-oxo-4,6,7,8-tetrahydropyrrolo[1,2-a]pyrimidine-6-carboxamide] |
| > 6.30 | 5.60 to 6.30 | Cc1nc(N)ccc1CNC(=O)[C@@H]1CCc2ncc(NCc3cc(F)cc(Cl)c3)c(=O)n21 [Compound 56, (S)—N-((6-amino-2-methylpyridin-3-yl)methyl)-3-((3-chloro-5-fluorobenzyl)amino)-4-oxo-4,6,7,8-tetrahydropyrrolo[1,2-a]pyrimidine-6-carboxamide] |
| > 6.30 | 5.60 to 6.30 | CCOc1cccc(CNc2cnc3n(c2=O)[C@H](C(=O)NCc2ccc(N)nc2C)CC3)c1 [Compound 57, (S)—N-((6-amino-2-methylpyridin-3-yl)methyl)-3-((3-ethoxybenzyl)amino)-4-oxo-4,6,7,8-tetrahydropyrrolo[1,2-a]pyrimidine-6-carboxamide] |
| > 6.30 | 5.60 to 6.30 | Cc1nc(N)ccc1CNC(=O)[C@@H]1CCc2ncc(NCc3cccc(Cl)c3)c(=O)n21 [Compound 58] |
| > 6.30 | 5.00 to 5.60 | Cc1nc(N)ccc1CNC(=O)[C@@H]1CCc2ncc(NCc3ccccc3)c(=O)n21 [Compound 59] |
| > 6.30 | 5.60 to 6.30 | Cc1cccc(CNc2cnc3n(c2=O)[C@H](C(=O)NCc2ccc(N)nc2C)CC3)c1 [Compound 60, (S)—N-((6-amino-2-methylpyridin-3-yl)methyl)-3-((3-methylbenzyl)amino)-4-oxo-4,6,7,8-tetrahydropyrrolo[1,2-a]pyrimidine-6-carboxamide] |
| > 6.30 | 5.00 to 5.60 | Cc1ccc(CNc2cnc3n(c2=O)[C@H](C(=O)NCc2ccc(N)nc2C)CC3)cc1 [Compound 61] |
| > 6.30 | 5.60 to 6.30 | Cc1nc(N)ccc1CNC(=O)[C@@H]1CCc2ncc(NCc3cccc(F)c3C)c(=O)n21 [Compound 63] |
| 5.60 to 6.30 | < 4.60 | Cc1cc(Cl)cc(CNc2cnc3n(c2=O)[C@H](C(=O)NCc2cccnc2)CC3)c1 [Compound 66] |
| 5.60 to 6.30 | 4.60 to 5.00 | CCN(Cc1cc(C)cc(OC)c1)c1cnc2n(c1=O)[C@H](C(=O)NCc1ccc(N)nc1C)CC2 [Compound 67, (S)—N-((6-amino-2-methylpyridin-3-yl)methyl)-3-(ethyl(3-methoxy-5-methylbenzyl)amino)-4-oxo-4,6,7,8-tetrahydropyrrolo[1,2-a]pyrimidine-6-carboxamide] |
| > 6.30 | 5.00 to 5.60 | Cc1nc(N)ccc1CNC(=O)[C@@H]1CCc2ncc(NCc3ccccc3F)c(=O)n21 [Compound 68] |
| > 6.30 | 5.60 to 6.30 | Cc1nc(N)ccc1CNC(=O)[C@@H]1CCc2ncc(NCc3cccc(C(F)F)c3)c(=O)n21 [Compound 71, (S)—N-((6-amino-2-methylpyridin-3-yl)methyl)-3-((3-(difluoromethyl)benzyl)amino)-4-oxo-4,6,7,8-tetrahydropyrrolo[1,2-a]pyrimidine-6-carboxamide] |
| > 6.30 | 5.60 to 6.30 | Cc1nc(N)ccc1CNC(=O)[C@@H]1CCc2ncc(NCc3cccc(C#N)c3)c(=O)n21 [Compound 73, (S)-N-((6-amino-2-methylpyridin-3-yl)methyl)-3-((3-cyanobenzyl)amino)-4-oxo-4,6,7,8-tetrahydropyrrolo[1,2-a]pyrimidine-6-carboxamide] |
| > 6.30 | > 6.30 | COc1cc(Cl)cc(CNc2cnc3n(c2=O)[C@H](C(=O)NCc2ccc(N)nc2C)CC3)c1 [Compound 74, (S)-N-((6-amino-2-methylpyridin-3-yl)methyl)-3-((3-chloro-5-methoxybenzyl)amino)-4-oxo-4,6,7,8-tetrahydropyrrolo[1,2-a]pyrimidine-6-carboxamide] |
| > 6.30 | < 4.60 | COc1cc(Cl)cc(CNc2cnc3n(c2=O)[C@@H](C(=O)N[C@H](C)c2ccc(N)nc2)CC3)c1 [Compound 77, (R)-N-((R)-1-(6-aminopyridin-3-yl)ethyl)-3-((3-chloro-5-methoxybenzyl)amino)-4-oxo-4,6,7,8-tetrahydropyrrolo[1,2-a]pyrimidine-6-carboxamide] |
| 5.00 to 5.60 | < 4.60 | Cc1cc(C)cc(CNc2cnc3n(c2=O)[C@@H](C(=O)NCc2ccc(N)nc2C)CC3)c1 [Compound 78] |
| > 6.30 | < 4.60 | Cc1cc(C)cc(CNc2cnc3n(c2=O)[C@@H](C(=O)NCc2ccc(N)nc2)CC3)c1 [Compound 79] |
| > 6.30 | 5.60 to 6.30 | Cc1nc(N)ccc1CNC(=O)[C@@H]1CCc2ncc(NCc3cccc(CC#N)c3)c(=O)n21 [Compound 80, (S)-N-((6-amino-2-methylpyridin-3-yl)methyl)-3-((3-(cyanomethyl)benzyl)amino)-4-oxo-4,6,7,8-tetrahydropyrrolo[1,2-a]pyrimidine-6-carboxamide] |
